Data: patent US20090209535A1, “6-ETHER/THIOETHER-PURINES AS TOPOISOMERASE II CATALYTIC INHIBITORS AND THEIR USE IN THERAPY” (TOPOTARGET A/S, priority 2005, published 2009)
pIC50: −log10 of the molar value. Where a name gives a salt, the structure may show the parent alone. Read-outs that look alike come from different tables or passages of the source. One block for each compound: values may come before it.

What was measured:
[1] = target: topoisomerase II α (Homo sapiens, UniProt P11388); test: Topoisomerase II ATPase assay (coupled, NADH oxidation); type: biochemical; set-up: made in house; host or cells: yeast (over-expressing yeast cells); conditions: for inhibition of ATPase activity in the presence of DTT, in words: 10 mM DTT in the reaction buffer
Sequence of topoisomerase II α (P11388 whole entry): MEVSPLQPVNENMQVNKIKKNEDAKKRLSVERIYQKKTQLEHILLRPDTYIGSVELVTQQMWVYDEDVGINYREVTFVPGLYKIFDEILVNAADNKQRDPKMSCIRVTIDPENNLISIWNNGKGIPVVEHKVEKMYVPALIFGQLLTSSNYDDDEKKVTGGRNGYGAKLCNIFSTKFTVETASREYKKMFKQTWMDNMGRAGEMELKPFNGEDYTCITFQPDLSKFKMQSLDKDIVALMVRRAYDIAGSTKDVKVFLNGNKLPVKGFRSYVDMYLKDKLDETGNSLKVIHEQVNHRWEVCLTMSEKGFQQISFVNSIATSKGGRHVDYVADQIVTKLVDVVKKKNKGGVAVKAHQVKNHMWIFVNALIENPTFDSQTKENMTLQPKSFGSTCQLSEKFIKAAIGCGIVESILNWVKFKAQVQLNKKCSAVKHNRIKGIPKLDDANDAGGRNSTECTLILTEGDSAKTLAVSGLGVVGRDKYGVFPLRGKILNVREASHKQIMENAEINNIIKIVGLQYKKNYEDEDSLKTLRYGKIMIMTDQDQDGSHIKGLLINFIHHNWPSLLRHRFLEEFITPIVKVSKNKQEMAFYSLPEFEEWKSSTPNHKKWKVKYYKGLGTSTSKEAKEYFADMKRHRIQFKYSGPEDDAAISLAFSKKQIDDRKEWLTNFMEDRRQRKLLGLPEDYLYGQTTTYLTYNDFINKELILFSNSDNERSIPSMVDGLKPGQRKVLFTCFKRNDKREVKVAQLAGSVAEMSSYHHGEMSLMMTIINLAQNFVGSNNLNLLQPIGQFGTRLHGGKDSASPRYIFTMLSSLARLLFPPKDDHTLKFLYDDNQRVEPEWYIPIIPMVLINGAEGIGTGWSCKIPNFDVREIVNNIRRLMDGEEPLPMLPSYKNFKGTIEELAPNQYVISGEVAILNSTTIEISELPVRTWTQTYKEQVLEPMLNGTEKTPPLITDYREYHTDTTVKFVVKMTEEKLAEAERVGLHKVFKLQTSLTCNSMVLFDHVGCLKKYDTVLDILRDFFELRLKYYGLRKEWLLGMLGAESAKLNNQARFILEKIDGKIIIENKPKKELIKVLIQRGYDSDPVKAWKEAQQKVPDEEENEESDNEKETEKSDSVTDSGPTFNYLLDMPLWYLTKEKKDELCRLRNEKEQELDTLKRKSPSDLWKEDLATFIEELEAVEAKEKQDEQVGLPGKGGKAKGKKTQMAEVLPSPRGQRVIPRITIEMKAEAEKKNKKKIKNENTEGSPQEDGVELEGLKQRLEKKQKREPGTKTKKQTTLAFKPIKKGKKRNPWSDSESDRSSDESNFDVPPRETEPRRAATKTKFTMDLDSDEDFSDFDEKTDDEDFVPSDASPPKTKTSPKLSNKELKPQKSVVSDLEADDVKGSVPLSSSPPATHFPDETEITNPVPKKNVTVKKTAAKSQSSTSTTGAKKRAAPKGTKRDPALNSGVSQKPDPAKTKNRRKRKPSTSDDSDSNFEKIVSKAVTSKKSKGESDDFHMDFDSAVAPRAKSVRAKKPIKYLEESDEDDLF
Procedure: The reaction was monitored spectrophotometrically at 340 nm using a Bio-Tek EL808 Ultra Micro plate Reader connected to a computer with KC4 Software installed (Bio-Tek Instruments, U.S.). The change in absorbance was related to ADP production using A340^1M=6220 cm^−1. […] The rate of ATP hydrolysis, V, was determined from the linear part of the curve.
The steady-state rate of ATP hydrolysis was determined using a coupled ATPase assay as described herein. […] Error bars represent SEM of two independent experiments each performed in duplicate.
The steady-state rate of ATP hydrolysis was determined as described in for FIG. 3 and as described herein. In this analysis, the rate of ATP hydrolysis in the absence of drug was set to one in all experiments. Error bars represent SEM of 2 or 3 independent experiments each preformed in duplicate.

[2] = target: T1, wild-type human topoisomerase II α (Homo sapiens, UniProt P11388); test: Topoisomerase II DNA strand passage assay (kDNA decatenation), wild-type enzyme; type: biochemical; conditions: for inhibition of DNA strand passage (decatenation) activity, in words: wild-type enzyme, FIG. 2-A and FIG. 5
T1 construct: made in house; host or cells: yeast (over-expressing yeast cells)
T1 sequence (P11388 whole entry): as above
Procedure: Topoisomerase II catalytic activity (DNA strand passage activity) was measured by using a filter-based kDNA decatenation assay as described in Jensen et al., 2002. Briefly, 200 ng ^3H labelled kDNA isolated from C. fasciculata was incubated with increasing concentrations of drug in 20 μL reaction buffer containing 10 mM TRIS-HCl pH 7.7, 50 mM NaCl, 50 mM KCl, 5 mM MgCl2, 1 mM EDTA, 15 μg/mL BSA and 1 mM ATP using two units of purified wild-type or Y165S mutant topoisomerase II α for 20 minutes at 37° C. (where one unit of activity is defined as the amount of enzyme required for complete decatenation in the absence of drug). After addition of 5× stop buffer (5% Sarkosyl, 0.0025% bromophenol blue, and 50% glycerol), unprocessed kDNA network and decatenated DNA mini-circles were separated by filtering, and the amount of unprocessed kDNA in each reaction was determined by scintillation counting.
FIG. 2 describes the results of studies of the inhibition of topoisomerase II DNA strand passage activity by increasing concentrations of NSC 35866. Inhibition of human topoisomerase II α DNA strand passage activity was assessed by decatenation of tritium-labelled Crithidia fasiculata kDNA using a filter-based assay to separate unprocessed kDNA network from decatenated mini-circles. […] Error bars represent SEM of three independent experiments in panel A and two independent experiments in panel B.
Inhibition of human topoisomerase II α DNA strand passage activity was determined by decatenation of tritium labelled Crithidia fasiculata kDNA as described for FIG. 2. Error bars represent SEM of 3 or 4 independent experiments.

[3] = test system: human SCLC OC—NYH cells; test: Clonogenic assay, antagonism of etoposide-induced cytotoxicity; type: cell-based
Procedure: Cells were then plated in 0.3% agar in 6 cm petri dishes with sheep red blood cells as feeder layer in triplicate, and were incubated under the same conditions as described above. Plates were counted after 3 weeks.
20 μM etoposide was then added, and the cells were incubated for one hour. Next, the drugs were washed out and the cells were plated and counted after three weeks as described herein.

[4] = target: T2, human topoisomerase II α-DNA covalent complexes (Homo sapiens, UniProt P11388); test: Topoisomerase II DNA cleavage assay (phenol-chloroform extraction, Δcpm); type: biochemical
T2 construct: made in house; host or cells: yeast (over-expressing yeast cells)
T2 sequence (P11388 whole entry, one chain of several): as the sequence (P11388 whole entry) above
From the text: In order to determine the ability of NSC 35866 to increase the level of topoisomerase II-DNA covalent complexes on DNA in vitro, a new and highly sensitive topoisomerase II DNA cleavage assay having a numeric readout was developed. […] The DNA substrate is a 950 bp linear ^3H-labelled DNA synthesized by PCR in the presence of ^3H-dATP. […] The DNA fragment was isolated from unincorporated dNTPs by ethanol precipitation at 0.3 M NaCl, followed by washing in 70% ethanol. The specific activity of the fragment was typically 10,000-20,000 cpm/μg. Before starting the assay, a drug dilution series comprising 10× the final drug concentration was made. Reaction mixtures containing 100 ng of the 950 bp linear ^3H-labelled DNA, 300 ng human topoisomerase II q, topoisomerase II cleavage buffer (10 mM TRIS-HCL pH 7.9, 50 mM NaCl, 50 mM KCl, 5 mM MgCl2, 1 mM EDTA, 15 μg/mL BSA and 1 mM Na2ATP), and increasing concentrations of drug in 50 μL reaction volumes were then incubated 10 minutes at 37° C. A “no topoisomerase II” sample and a “no drug” sample were always included as controls. Next, the cleavable complex was trapped by adding 5 μL 10% SDS. After vigorous vortexing, 45 uL TE buffer, pH=8.0, was added to obtain 100 μL per sample. 100 μL phenol:chloroform:isoamyl alcohol (25:24:1) equilibrated with TE buffer, pH=8.0, was then added, and the samples were vortexed vigorously for 30 seconds. Finally, the samples were centrifuged at 20,000 g for 2 minutes and 90 μL of the upper water phase was used for scintillation counting using 15 mL of Ultima gold scintillation fluid (Packard).
In order to establish whether NSC 35866 inhibits the DNA strand passage reaction of topoisomerase II by stabilising a covalent reaction intermediate, a new and highly sensitive topoisomerase II DNA cleavage assay having a numeric read-out was developed. This assay is based on the fact that after extraction with phenol-chloroform, protein-bound DNA is removed from the water phase, while naked DNA remains in the water phase. […] Consequently, in reactions containing topoisomerase II and linear DNA, the ability of compounds to remove DNA from the water phase after phenol-chloroform extraction should reflect their potency as topoisomerase II poisons. This assay was first validated by incubating 100 ng of a linear 950 bp PCR DNA fragment with 300 ng of purified human topoisomerase II α in the presence of increasing concentrations of the etoposide and m-AMSA. The DNA fragment was ^3H labelled by performing PCR in the presence of ^3H-dATP. In these experiments, a “no topoisomerase II” sample was always included to determine the level of radioactivity (DNA) retained in the water-phase when no enzyme is present. Within each experiment, the CPM values retained in the water phase in the topoisomerase II reactions were then subtracted from this background CPM value to give Δcpm. Consequently, the Δcpm values of samples with no drug added represent the background level of topoisomerase II-DNA covalent complexes present in the reaction mixture under the assay conditions, while the Δcpm levels in the presence of drugs represent the levels of poison-induced topoisomerase II-DNA covalent complexes.

[5] = test system: human SCLC OC—NYH cells; test: Alkaline elution assay (DNA breaks); type: cell-based; conditions: 3 μM
Procedure: Alkaline elution assay was performed as described in Kohn et al., 1976 with modifications as described in Sehested et al., 1998. Briefly, to assess the ability of NSC 35866 to protect against etoposide-induced DNA breaks, cells were incubated with increasing concentrations of NSC 35866 for 10 minutes, before 3 μM etoposide was added to the samples. The cells were then co-incubated with 3 μM etoposide along with the same concentrations of NSC 35866 for 60 minutes. Some samples contained no etoposide in order to assess whether NSC 35866 induced DNA breaks by itself. After incubation with drug, cells were lysed and the DNA fragments eluted. DNA in the experimental OC—NYH cells was metabolically labelled by ^14C-thymidine incorporation while DNA in the internal control L1210 cells was metabolically labelled by ^3H-thymidine incorporation.
FIG. 9 describes the results of studies of the ability of NSC 35866 to antagonise DNA breaks induced by etoposide in human SCLC OC—NYH cells in a dose dependent manner. Alkaline DNA elution was used to detect DNA fragmentation induced by 3 μM etoposide in the presence of increasing concentrations of NSC 35866 as described herein. H202 treated mouse leukemic L1210 cells were used as internal control for DNA fragmentation. The DNA of the experimental OC—NYH cells was ^14C-labelled while the DNA of the L1210 cells was 3H-labelled.

[6] = measured in the absence of DTT, read-out: IC50
[7] = in the presence of DNA (DNA-stimulated), read-out: IC50, inhibition of ATPase activity

SMILES: Nc1nc(OCc2ccccc2)c2nc[nH]c2n1 [O^6-benzylguanine]
inhibition of ATPase activity in the presence of DTT, in words [1]: could inhibit ATPase activity
pIC50 [1, 7]: 3.00

SMILES: Sc1ncc2nc[nH]c2n1 [2-thiopurine]
inhibition of DNA strand passage (decatenation) activity, in words [2]: virtually no effect
effect on the level of etoposide-induced cytotoxicity, in words ([3]; concentrations up to 30 μM): no detectable effect
pIC50 [1, 7]: ~5.52

SMILES: COc1nc(N)nc2nc[nH]c12 [O^6-methylguanine, reference compound]
inhibitory effect on ATPase reaction, in words ([1]; concentrations up to 300 μM): no detectable inhibitory effect

SMILES: Nc1nc2nc[nH]c2c(=S)[nH]1 [6-thioguanine, reference compound]
pIC50 ([2]; FIG. 5, read-out: half-maximal inhibition of DNA strand passage activity): ~4.30
pIC50 [1, 7]: ~4.52

SMILES: Nc1nc(Cl)c2nc[nH]c2n1 [6-chloroguanine, reference compound]
inhibitory effect on ATPase reaction, in words ([1]; concentration not given): no inhibitory effect

SMILES: CSc1nc(N)nc2nc[nH]c12 [6-methylthioguanine]
inhibition of DNA strand passage (decatenation) activity, in words [2]: almost no inhibition of decatenation activity
effect on the level of etoposide-induced cytotoxicity, in words ([3]; concentrations up to 500 μM): no detectable effect
inhibitory effect on ATPase reaction, in words ([1]; concentration not given): capable of inhibiting topoisomerase II ATPase activity

SMILES: Nc1nc2c(ncn2Cc2ccccc2)c(=O)[nH]1 [9-benzylguanine, reference compound]
inhibitory effect on ATPase reaction, in words ([1]; concentrations up to 300 μM): no inhibitory effect

SMILES: Nc1nc2c(ncn2COCCO)c(=O)[nH]1 [acyclovir, 9-[(2-hydroxyethoxy)methyl]guanine, reference compound]
inhibitory effect on ATPase reaction, in words ([1]; concentrations up to 300 μM): no inhibitory effect

SMILES: S=c1[nH]c(=S)c2[nH]cnc2[nH]1 [2,6-dithiopurine]
inhibition of DNA strand passage (decatenation) activity, in words [2]: an effect between that of the two 6-substituted thiopurines
effect on the level of etoposide-induced cytotoxicity, in words ([3]; concentrations up to 30 μM): no detectable effect
pIC50 [1, 7]: ~5.52

SMILES: Sc1ncnc2nc[nH]c12 [6-thiopurine]
concentration at which maximal inhibition of DNA strand passage activity is reached ([2]; FIG. 5): > 1000 µM
effect on the level of etoposide-induced cytotoxicity, in words ([3]; concentrations up to 300 μM): no detectable effect
pIC50 [1, 7]: ~4.00

SMILES: Cn1cnc([N+](=O)[O-])c1Sc1ncnc2nc[nH]c12 [azathioprine, 6-(1-methyl-4-nitroimidazol-5-yl)thiopurine, reference compound]
effect on the level of etoposide-induced cytotoxicity, in words ([3]; concentrations up to 500 μM): no detectable effect
inhibitory effect on ATPase reaction, in words ([1]; concentration not given): capable of inhibiting topoisomerase II ATPase activity

SMILES: Nc1nc(OCC2CCCCC2)c2nc[nH]c2n1 [NU 2058, O^6-cyclohexylmethylguanine]
inhibition of ATPase activity in the presence of DTT, in words [1]: could inhibit ATPase activity
pIC50 [1, 7]: 3.52

SMILES: COc1cc(NS(C)(=O)=O)ccc1Nc1c2ccccc2nc2ccccc12 [m-AMSA, methanesulfone-m-anisidine-4′-[(9-acridinyl)amino] hydrochloride]
effect on Δcpm with increasing concentrations, in words ([4]; with ATP, FIG. 6): increase Δcpm in a dose-dependent manner

SMILES: COc1cc([C@@H]2c3cc4c(cc3[C@@H](O[C@@H]3O[C@@H]5CO[C@@H](C)O[C@H]5[C@H](O)[C@H]3O)[C@H]3COC(=O)[C@H]23)OCO4)cc(OC)c1O [etoposide, 4′-demethylepipodophyllotoxin 9-(4,6-O-ethylidene-b-D-glucopyranoside)]
effect on Δcpm with increasing concentrations, in words ([4]; ATP omitted from the reaction): no detectable increase in Δcpm
increase of the level of covalent complex formation, factor ([4]; etoposide up to 40 μM, with ATP): 6
effect on Δcpm with increasing concentrations, in words ([4]; with ATP, FIG. 6): increase Δcpm in a dose-dependent manner
DNA fragmentation by the drug alone, in words [5]: extensive fragmentation of DNA

Continued, values first:

pIC50 [1, 6]: 3.92
SMILES: Cn1cnc([N+](=O)[O-])c1Sc1nc(N)nc2c1ncn2C1CC(O)C(CO)O1 (stereo not shown) [NSC172614]

pIC50 [1, 6]: 3.93
SMILES: CC(=O)OCSc1ncnc2c1ncn2CN1CCOCC1 [NSC647471]

pIC50 [1, 6]: 4.85
SMILES: Cc1ccc(CSc2nc(N)nc3[nH]cnc23)cc1 [NSC46384]

pIC50 [1, 6]: 4.90
SMILES: CSc1nc(Cl)c(Br)c(Sc2nc(N)nc3[nH]cnc23)n1 [NSC52383]

pIC50 [1, 6]: 6.41
SMILES: Nc1nc(Sc2cc([N+](=O)[O-])c3nonc3c2)c2ncn(C3OC(CO)C(O)C3O)c2n1 (stereo not shown) [NSC348400]

pIC50 [1, 6]: 4.72
SMILES: N#CCSc1nc(N)nc2[nH]cnc12 [NSC39331]

pIC50 [1, 6]: 4.44
SMILES: CCSc1nc(N)c(Br)c(Sc2nc(N)nc3[nH]cnc23)n1 [NSC52388]

pIC50 [1, 6]: 4.16
SMILES: Nc1nc(SC/C=C/c2ccccc2)c2nc[nH]c2n1 [NSC36824]

pIC50 [1, 6]: 4.27
SMILES: Nc1nc(SCc2ccc(F)cc2)c2nc[nH]c2n1 [NSC35865]

pIC50 [1, 6]: 4.47
SMILES: CNc1ncnc(Sc2nc(N)nc3[nH]cnc23)c1[N+](=O)[O-] [NSC38732]

pIC50 [1, 6]: 4.07
SMILES: CCCCCSc1nc(N)nc2[nH]cnc12 [NSC35862]

pIC50 [1, 6]: 3.82
SMILES: Nc1nc(SCCCc2ccccc2)c2nc[nH]c2n1 [NSC39328]

pIC50 [1, 6]: 5.10
SMILES: CCn1c(C)nc([N+](=O)[O-])c1Sc1nc(N)nc2[nH]cnc12 [NSC42375]

pIC50 [1, 6]: 6.43
SMILES: Nc1nc(Sc2ccc([N+](=O)[O-])c3nonc23)c2[nH]cnc2n1 [NSC348401]

pIC50 [1, 6]: 6.11
SMILES: O=[N+]([O-])c1ccc(Sc2ncnc3[nH]cnc23)c2nonc12 [NSC348402]

pIC50 [1, 6]: 5.56
SMILES: CCOC(=O)c1cc([N+](=O)[O-])c(Sc2ncnc3[nH]cnc23)c([N+](=O)[O-])c1 [NSC244708]

pIC50 [1, 6]: 4.87
SMILES: Nc1nc(SCc2ccccc2)c2[nH]cnc2n1 [NSC15747]
